Among the data in US20170107207A1, “AMINOPYRAZOLONE DERIVATIVE” (DAIICHI SANKYO COMPANY, LIMITED, priority 2014, published 2017) are IC50 and GI50 values, retold here.

One experiment concerns the target T1, TIP48/TIP49 complex (Homo sapiens, UniProt Q9Y230+Q9Y265).
T1 construct: made in house; host or cells: E. coli
Description: ATPase assay of TIP48/TIP49 complex (ADP-Glo). Format: biochemical. The conditions noted are these: concentration at which the ATPase activity was inhibited by 50%. A digest of the protocol:
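Recombinant human TIP48 and TIP49 expressed in E. coli (24.5 μg/mL final) were incubated 1.5 h at room temperature with compound (0.0007–200 μM, 2% DMSO) in Tris-HCl pH 7.5 buffer containing MgCl2 and ATP. ADP formed was detected by ADP-Glo luminescence; inhibition came from dose-response curves.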
A general note: In ADP-Glo the light output rises with the ADP produced.

Experiment [1] deals with human lymphoma cell line RAMOS cells. Kind of experiment: Cell growth inhibition test using RAMOS cell, ATP assay (CellTiter-Glo). It counts as cell-based. The note with it: Homo sapiens, Ramos, 72 h, cultured 3 days, 50% growth inhibition concentration. A digest of the protocol: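 RAMOS cells seeded at 4000 cells/well with compound and cultured 3 days at 37° C, 5% CO2; viability by CellTiter-Glo luminescence. Growth rate T/C % = 100×[(B−C)/(A−C)] using day-0 and final readings; GI50 interpolated from the two concentrations bracketing 50% growth.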
A general note: In ATP-based viability assays light output follows the ATP content of the culture.

The term IC50 denotes the concentration needed to halve the response being measured. A higher IC50 goes with weaker potency in that assay. For orientation: GI50 means the concentration giving 50% growth inhibition.

T1 sequence (Q9Y230 whole entry): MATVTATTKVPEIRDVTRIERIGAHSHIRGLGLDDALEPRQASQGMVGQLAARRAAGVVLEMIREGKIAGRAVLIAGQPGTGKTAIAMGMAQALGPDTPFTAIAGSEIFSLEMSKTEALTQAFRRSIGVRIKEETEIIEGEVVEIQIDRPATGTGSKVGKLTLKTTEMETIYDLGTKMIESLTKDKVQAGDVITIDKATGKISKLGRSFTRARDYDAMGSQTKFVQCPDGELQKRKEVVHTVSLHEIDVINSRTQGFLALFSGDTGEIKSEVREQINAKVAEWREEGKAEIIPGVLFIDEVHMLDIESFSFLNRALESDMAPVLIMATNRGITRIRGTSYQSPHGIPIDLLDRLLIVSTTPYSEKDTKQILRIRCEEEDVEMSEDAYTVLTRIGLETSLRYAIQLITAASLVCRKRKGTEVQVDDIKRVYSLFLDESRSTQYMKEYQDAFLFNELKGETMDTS
T1 sequence (Q9Y265 whole entry): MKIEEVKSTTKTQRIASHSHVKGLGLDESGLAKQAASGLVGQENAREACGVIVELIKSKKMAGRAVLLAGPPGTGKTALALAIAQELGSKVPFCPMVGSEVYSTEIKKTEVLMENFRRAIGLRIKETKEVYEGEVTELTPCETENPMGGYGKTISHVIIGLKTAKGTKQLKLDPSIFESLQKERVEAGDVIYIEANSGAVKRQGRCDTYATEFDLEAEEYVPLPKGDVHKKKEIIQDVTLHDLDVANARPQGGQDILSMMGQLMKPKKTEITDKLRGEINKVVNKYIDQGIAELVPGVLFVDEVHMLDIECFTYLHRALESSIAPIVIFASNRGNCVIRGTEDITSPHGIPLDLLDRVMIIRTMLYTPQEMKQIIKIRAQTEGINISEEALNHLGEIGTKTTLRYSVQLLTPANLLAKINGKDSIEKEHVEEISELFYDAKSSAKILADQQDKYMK

In turn, `CCOc1ccc(Cl)cc1C(=O)NCC(C)(C)CC(=O)Nc1c(CC(C)(C)N(C)C)n(C)n(-c2ccccc2)c1=O` [Example 56, 5-Chloro-N-[4-({5-[2-(dimethylamino)-2-methylpropyl]-1-methyl-3-oxo-2-phenyl-2,3-dihydro-1H-pyrazol-4-yl}amino)-2,2-dimethyl-4-oxobutyl]-2-ethoxybenzamide] gave an IC50 against TIP48/TIP49 complex of 40 nM. This compound registered a GI50 in experiment [1] of 120 nM.

Take `CCOc1ccc(Cl)cc1C(=O)NCC(C)(C)CC(=O)Nc1c(C[C@H](C)N(C)C)n(C)n(-c2ccccc2)c1=O` [Example 51, 5-Chloro-N-[4-({5-[(2S)-2-(dimethylamino)propyl]-1-methyl-3-oxo-2-phenyl-2,3-dihydro-1H-pyrazol-4-yl}amino)-2,2-dimethyl-4-oxobutyl]-2-ethoxybenzamide]: inhibition against TIP48/TIP49 complex was half-maximal at 71 nM (IC50). Moreover, growth in experiment [1] was halved (GI50) at 140 nM.

On to `CCOc1ccc(Cl)cc1NC(=O)CC1(CC(=O)Nc2c(CCN(C)C)n(C)n(-c3ccccc3)c2=O)CCCC1` [Example 32, N-(5-chloro-2-ethoxyphenyl)-2-{1-[2-({5-[2-(dimethylamino)ethyl]-1-methyl-3-oxo-2-phenyl-2,3-dihydro-1H-pyrazol-4-yl}amino)-2-oxoethyl]cyclopentyl}acetamide], for which the IC50 at TIP48/TIP49 complex was found to be 130 nM. In experiment [1], this compound gave a GI50 of 1300 nM.

The compound `COCOc1cc(F)c(Cl)cc1C(=O)NCC(C)(C)CC(=O)Nc1c(COC)n(C)n(-c2ccccc2)c1=O` [Example 116, 5-Chloro-4-fluoro-2-(methoxymethoxy)-N-(4-{[5-(methoxymethyl)-1-methyl-3-oxo-2-phenyl-2,3-dihydro-1H-pyrazol-4-yl]amino}-2,2-dimethyl-4-oxobutyl)benzamide] yielded an IC50 against TIP48/TIP49 complex of 14 nM. In experiment [1], this compound displayed a GI50 of 140 nM.

On TIP48/TIP49 complex, `CCOc1ccc(Cl)cc1C(=O)NCC(C)(C)CC(=O)Nc1c(C[C@@H](C)N(C)C)n(C)n(-c2ccccc2)c1=O` [Example 48, 5-Chloro-N-[4-({5-[(2R)-2-(dimethylamino)propyl]-1-methyl-3-oxo-2-phenyl-2,3-dihydro-1H-pyrazol-4-yl}amino)-2,2-dimethyl-4-oxobutyl]-2-ethoxybenzamide] had an IC50 of 61 nM. In experiment [1], this compound yielded a GI50 of 160 nM.

Compound `CCOc1cc(F)c(Cl)cc1C(=O)NCC(C)(C)CC(=O)Nc1c(C(CN(C)C)OC)n(C)n(-c2ccccc2)c1=O` (stereo not drawn) [Example 80, 5-Chloro-N-[4-({5-[2-(dimethylamino)-1-methoxyethyl]-1-methyl-3-oxo-2-phenyl-2,3-dihydro-1H-pyrazol-4-yl}amino)-2,2-dimethyl-4-oxobutyl]-2-ethoxy-4-fluorobenzamide] yielded an IC50 on TIP48/TIP49 complex of 140 nM. In addition, halving of growth in experiment [1] (GI50) required 170 nM.

Take `CCOc1ccc(Cl)cc1C(=O)NCC(C)(C)CC(=O)Nc1c(CCC(F)(F)F)n(C)n(-c2ccccc2)c1=O` [Example 158, 5-Chloro-N-(2,2-dimethyl-4-{[1-methyl-3-oxo-2-phenyl-5-(3,3,3-trifluoropropyl)pyrazol-4-yl]amino}-4-oxobutyl)-2-ethoxybenzamide]: on TIP48/TIP49 complex, the IC50 worked out at 33 nM. The compound further yielded a GI50 in experiment [1] of 310 nM.

At TIP48/TIP49 complex, `[2H]C([2H])([2H])n1c(CCN(C)C)c(NC(=O)CC(C)(C)CNC(=O)c2cc(Cl)ccc2OCC)c(=O)n1-c1ccccc1` [Example 43, 5-Chloro-N-[4-({3-[2-(dimethylamino)ethyl]-5-oxo-1-phenyl-2-(trideuteriomethyl)pyrazol-4-yl}amino)-2,2-dimethyl-4-oxobutyl]-2-ethoxybenzamide] displayed an IC50 of 60 nM. This compound returned a GI50 in experiment [1] of 190 nM.

Compound `Cc1cc2cc(Cl)cc(C(=O)NCC(C)(C)CC(=O)Nc3c(C[C@H](C)N(C)C)n(C)n(-c4ccccc4)c3=O)c2o1` [Example 54, 5-Chloro-N-[4-({5-[(2S)-2-(dimethylamino)propyl]-1-methyl-3-oxo-2-phenyl-2,3-dihydro-1H-pyrazol-4-yl}amino)-2,2-dimethyl-4-oxobutyl]-2-methylbenzofuran-7-carboxamide] returned an IC50 on TIP48/TIP49 complex of 94 nM. This compound also came in with a GI50 in experiment [1] of 140 nM.
